Source: ChEMBL document CHEMBL1128079, “Differential RXR & RAR activity of stilbene retinoid analogs bearing thiazole and imidazole carboxylic acids” (Bioorg Med Chem Lett, 1995)

What was measured:
Type in all cases: functional
[1] = target: T1, Retinoic acid receptor RXR-gamma (Homo sapiens, UniProt P48443); assay: Agonist activity for retinoic acid receptor RXR gamma in transcriptional activation assay
T1 sequence (P48443 whole entry): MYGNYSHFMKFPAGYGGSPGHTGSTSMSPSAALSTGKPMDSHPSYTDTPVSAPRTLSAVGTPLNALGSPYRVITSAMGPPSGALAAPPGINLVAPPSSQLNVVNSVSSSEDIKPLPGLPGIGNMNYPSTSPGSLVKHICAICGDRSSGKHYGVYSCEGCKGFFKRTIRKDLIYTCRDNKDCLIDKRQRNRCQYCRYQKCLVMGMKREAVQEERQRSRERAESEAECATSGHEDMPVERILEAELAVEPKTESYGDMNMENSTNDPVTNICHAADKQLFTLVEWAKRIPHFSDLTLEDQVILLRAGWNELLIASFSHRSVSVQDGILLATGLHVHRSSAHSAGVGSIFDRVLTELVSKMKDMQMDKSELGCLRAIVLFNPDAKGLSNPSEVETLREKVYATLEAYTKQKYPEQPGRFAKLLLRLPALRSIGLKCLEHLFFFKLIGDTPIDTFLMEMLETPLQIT

[2] = target: T2, Retinoic acid receptor beta (Homo sapiens, UniProt P10826); assay: Agonist activity for retinoic acid receptor RAR beta in transcriptional activation assay
T2 sequence (P10826 whole entry): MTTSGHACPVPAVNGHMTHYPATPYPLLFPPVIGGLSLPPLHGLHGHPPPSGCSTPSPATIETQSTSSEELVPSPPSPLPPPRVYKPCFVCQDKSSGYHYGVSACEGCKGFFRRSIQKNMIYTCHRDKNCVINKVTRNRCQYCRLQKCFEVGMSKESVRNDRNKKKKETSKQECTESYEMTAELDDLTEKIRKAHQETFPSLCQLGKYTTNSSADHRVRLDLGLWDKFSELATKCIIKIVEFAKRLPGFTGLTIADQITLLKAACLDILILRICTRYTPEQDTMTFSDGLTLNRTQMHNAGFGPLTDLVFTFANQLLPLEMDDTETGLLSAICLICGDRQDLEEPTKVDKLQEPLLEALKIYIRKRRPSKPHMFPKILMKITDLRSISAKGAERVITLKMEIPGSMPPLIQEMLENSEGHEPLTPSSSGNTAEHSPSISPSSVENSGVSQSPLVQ

[3] = target: T3, Retinoic acid receptor alpha (Homo sapiens, UniProt P10276); assay: Agonist activity for retinoic acid receptor RAR alpha in transcriptional activation assay; […]
T3 sequence (P10276 whole entry): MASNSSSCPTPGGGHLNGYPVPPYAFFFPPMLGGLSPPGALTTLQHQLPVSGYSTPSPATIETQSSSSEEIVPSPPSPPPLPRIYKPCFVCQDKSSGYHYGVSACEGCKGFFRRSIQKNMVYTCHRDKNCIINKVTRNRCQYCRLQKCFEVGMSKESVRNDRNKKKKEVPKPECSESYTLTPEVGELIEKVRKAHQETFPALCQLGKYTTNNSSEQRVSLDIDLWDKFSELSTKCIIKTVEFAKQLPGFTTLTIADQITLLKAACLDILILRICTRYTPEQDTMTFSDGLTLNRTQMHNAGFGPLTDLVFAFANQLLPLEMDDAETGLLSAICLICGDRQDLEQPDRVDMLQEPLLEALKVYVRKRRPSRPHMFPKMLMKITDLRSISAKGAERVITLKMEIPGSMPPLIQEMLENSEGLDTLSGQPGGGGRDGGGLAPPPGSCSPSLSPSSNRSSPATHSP

[4] = target: T4, Retinoic acid receptor RXR-alpha (Homo sapiens, UniProt P19793); assay: Agonist activity for retinoic acid receptor RXR alpha in transcriptional activation assay
T4 sequence (P19793 whole entry): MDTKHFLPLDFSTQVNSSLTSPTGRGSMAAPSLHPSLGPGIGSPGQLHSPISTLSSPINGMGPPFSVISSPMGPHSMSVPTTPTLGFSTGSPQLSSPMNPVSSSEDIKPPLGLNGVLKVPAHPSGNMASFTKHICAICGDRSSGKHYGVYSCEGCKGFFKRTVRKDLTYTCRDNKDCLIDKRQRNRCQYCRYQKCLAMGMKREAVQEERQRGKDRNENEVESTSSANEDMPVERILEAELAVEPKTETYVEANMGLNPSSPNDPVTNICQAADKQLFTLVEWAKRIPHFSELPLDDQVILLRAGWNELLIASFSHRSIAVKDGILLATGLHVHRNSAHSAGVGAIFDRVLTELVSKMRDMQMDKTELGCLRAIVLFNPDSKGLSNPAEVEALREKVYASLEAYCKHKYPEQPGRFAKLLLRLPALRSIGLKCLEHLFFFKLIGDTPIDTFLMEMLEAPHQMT

[5] = target: T5, Retinoic acid receptor gamma (Homo sapiens, UniProt P13631); assay: Agonist activity for retinoic acid receptor RAR gamma in transcriptional activation assay
T5 sequence (P13631 whole entry): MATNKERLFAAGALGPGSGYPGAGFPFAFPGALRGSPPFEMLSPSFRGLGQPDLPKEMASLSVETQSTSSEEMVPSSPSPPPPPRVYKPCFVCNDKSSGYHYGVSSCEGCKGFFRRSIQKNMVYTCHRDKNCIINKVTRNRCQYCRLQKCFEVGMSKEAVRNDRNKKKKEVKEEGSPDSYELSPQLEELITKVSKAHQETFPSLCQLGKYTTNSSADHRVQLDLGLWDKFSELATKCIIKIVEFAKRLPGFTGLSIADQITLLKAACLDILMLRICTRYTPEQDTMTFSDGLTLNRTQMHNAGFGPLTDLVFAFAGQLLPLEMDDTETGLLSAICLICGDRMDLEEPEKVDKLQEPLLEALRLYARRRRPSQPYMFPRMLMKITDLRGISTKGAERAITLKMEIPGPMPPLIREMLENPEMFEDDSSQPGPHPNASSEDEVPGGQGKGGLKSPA

[6] = target: T6, Retinoic acid receptor RXR-beta (Homo sapiens, UniProt P28702); assay: Agonist activity for retinoic acid receptor RXR beta in transcriptional activation assay
T6 sequence (P28702 whole entry): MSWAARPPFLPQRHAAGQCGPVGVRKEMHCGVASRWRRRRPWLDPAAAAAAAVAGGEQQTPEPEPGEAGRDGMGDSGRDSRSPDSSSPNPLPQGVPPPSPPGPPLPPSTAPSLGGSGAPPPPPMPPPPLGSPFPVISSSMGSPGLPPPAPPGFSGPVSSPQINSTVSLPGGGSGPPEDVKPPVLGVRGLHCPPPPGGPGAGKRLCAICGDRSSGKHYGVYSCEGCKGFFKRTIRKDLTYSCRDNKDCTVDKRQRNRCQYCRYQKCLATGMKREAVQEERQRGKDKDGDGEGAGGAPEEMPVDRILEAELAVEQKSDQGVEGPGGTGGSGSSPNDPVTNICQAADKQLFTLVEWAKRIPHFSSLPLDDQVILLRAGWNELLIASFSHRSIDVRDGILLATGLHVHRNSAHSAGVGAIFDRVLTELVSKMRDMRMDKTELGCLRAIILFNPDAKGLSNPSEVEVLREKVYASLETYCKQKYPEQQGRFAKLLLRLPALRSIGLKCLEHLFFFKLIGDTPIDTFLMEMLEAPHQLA

[7] = target: T5, Retinoic acid receptor gamma; assay: Agonist activity for retinoic acid receptor RAR gamma in transcriptional activation assay; […]
[8] = target: T2, Retinoic acid receptor beta; assay: Agonist activity for retinoic acid receptor RAR beta in transcriptional activation assay; […]
[9] = target: T3, Retinoic acid receptor alpha; assay: Agonist activity for retinoic acid receptor RAR alpha in transcriptional activation assay

EC50 [1] | EC50 [2] [nM] | EC50 [3] | EC50 ([1]; read-out: EC50) [nM] | EC50 [4] [nM] | EC50 [5] [nM] | EC50 [6] [nM] | EC50 [7] | EC50 [8] | EC50 [9] [nM] | SMILES
Not Active |  |  |  |  |  |  |  |  |  | C/C(=C\c1ccc(C(=O)O)cc1)c1ccc2c(c1)C(C)(C)CCC2(C)C
 | 220 | Not Active | 4 | 4 | 200 | 3 |  |  |  | C/C(=C\c1ncc(C(=O)O)s1)c1cc2c(cc1C)C(C)(C)CCC2(C)C
 |  | Not Active | 170 | 89 |  | 130 | Not Active | Not Active |  | C/C(=C\c1nc(C(=O)O)c[nH]1)c1cc2c(cc1C)C(C)(C)CCC2(C)C
 |  | Not Active | 86 | 59 |  | 180 | Not Active | Not Active |  | C/C(=C\c1ncc(C(=O)O)n1S(=O)(=O)N(C)C)c1cc2c(cc1C)C(C)(C)CCC2(C)C
 | 56 | Not Active | 33 | 35 | 131 | 23 |  |  |  | C/C(=C\c1ccc(C(=O)O)s1)c1cc2c(cc1C)C(C)(C)CCC2(C)C
 | 29 |  | 2300 | 2400 | 15 | 2300 |  |  | 690 | C/C(=C\c1ccc(C(=O)O)s1)c1ccc2c(c1)C(C)(C)CCC2(C)C
 | 46 |  | 160 | 210 | 34 | 210 |  |  | 210 | C/C(=C\c1ncc(C(=O)O)s1)c1ccc2c(c1)C(C)(C)CCC2(C)C
 | 1990 | Not Active | 105 | 215 | 979 | 180 |  |  |  | C/C(=C\c1cc(C(=O)O)cs1)c1cc2c(cc1C)C(C)(C)CCC2(C)C
